Biological target: H1047R PIK3CA enzyme (Homo sapiens, UniProt P42336, H1047R)
Assay: ADP-Glo Biochemical PIK3CA Kinase Assay

Chain of H1047R PIK3CA enzyme (P42336 whole entry H1047R): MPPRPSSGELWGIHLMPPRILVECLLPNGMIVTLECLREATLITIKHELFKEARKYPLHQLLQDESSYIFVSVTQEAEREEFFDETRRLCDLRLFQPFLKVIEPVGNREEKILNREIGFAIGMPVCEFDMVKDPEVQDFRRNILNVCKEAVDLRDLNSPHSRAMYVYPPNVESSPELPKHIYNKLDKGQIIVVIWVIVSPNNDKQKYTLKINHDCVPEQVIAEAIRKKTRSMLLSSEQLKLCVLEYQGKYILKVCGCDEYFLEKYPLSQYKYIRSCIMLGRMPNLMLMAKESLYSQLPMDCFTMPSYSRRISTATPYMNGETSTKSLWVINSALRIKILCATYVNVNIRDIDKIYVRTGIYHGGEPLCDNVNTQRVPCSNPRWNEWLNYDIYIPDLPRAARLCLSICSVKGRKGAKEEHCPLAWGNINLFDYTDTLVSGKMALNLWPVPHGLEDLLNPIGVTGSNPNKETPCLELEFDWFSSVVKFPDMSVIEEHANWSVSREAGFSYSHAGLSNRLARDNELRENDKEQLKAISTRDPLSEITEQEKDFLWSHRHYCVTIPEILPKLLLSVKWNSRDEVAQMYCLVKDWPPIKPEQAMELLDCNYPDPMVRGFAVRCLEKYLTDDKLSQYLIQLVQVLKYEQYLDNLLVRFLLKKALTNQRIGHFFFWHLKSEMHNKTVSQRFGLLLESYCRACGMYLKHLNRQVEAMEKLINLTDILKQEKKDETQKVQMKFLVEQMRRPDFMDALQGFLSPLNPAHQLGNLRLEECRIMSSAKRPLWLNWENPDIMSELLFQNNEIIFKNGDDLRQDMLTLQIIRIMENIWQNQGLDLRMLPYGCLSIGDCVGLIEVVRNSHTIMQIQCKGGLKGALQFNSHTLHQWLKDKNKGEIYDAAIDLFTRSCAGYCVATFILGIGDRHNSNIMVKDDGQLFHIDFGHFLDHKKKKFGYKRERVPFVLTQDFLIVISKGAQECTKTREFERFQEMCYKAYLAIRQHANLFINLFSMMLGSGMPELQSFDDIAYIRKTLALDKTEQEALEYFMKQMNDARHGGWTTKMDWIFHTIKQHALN
Chain of H1047R PIK3CA enzyme (P27986 whole entry partner): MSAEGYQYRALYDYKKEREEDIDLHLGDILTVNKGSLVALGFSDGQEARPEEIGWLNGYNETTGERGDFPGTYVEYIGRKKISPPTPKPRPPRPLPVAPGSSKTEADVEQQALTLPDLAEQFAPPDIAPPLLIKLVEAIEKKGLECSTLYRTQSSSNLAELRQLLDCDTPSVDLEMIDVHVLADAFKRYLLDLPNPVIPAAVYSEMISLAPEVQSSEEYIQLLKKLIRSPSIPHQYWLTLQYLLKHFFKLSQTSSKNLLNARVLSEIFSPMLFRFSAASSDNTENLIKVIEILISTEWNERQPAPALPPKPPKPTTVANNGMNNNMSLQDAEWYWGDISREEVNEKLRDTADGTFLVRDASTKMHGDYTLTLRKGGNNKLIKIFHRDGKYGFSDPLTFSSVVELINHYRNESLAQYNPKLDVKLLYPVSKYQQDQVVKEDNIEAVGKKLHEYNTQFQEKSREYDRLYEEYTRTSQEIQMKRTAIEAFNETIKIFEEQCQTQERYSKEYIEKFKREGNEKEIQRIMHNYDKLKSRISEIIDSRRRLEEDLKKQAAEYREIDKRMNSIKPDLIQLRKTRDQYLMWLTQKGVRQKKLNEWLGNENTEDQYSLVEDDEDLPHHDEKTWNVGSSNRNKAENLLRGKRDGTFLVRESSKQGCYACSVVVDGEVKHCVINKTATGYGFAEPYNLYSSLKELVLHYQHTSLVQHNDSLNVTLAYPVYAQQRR

| SMILES | IC50 [µM] |
| --- | --- |
| O=C1NC(c2cc(F)ccc2Cl)c2c(NC(=O)N3CCSc4ccccc43)cccc21 (stereo not drawn) [Compound I-2284] | 10 to 100 |
| CN(C)S(=O)(=O)c1cc(-c2ccc3ncnn3c2)cc2c1[C@H](c1cc(F)ccc1Cl)NC2=O [Compound I-2099] | 10 to 100 |
| O=C1N[C@H](c2cc(F)ccc2Cl)c2c(NC(=O)N3C[C@@H](O)c4cc(F)ccc43)cccc21 (single isomer, unassigned) [Compound I-2129] | 10 to 100 |
| Nc1cccc2c(=O)[nH]n(Cc3ccccc3)c12 [Compound I-103] | 10 to 100 |
| O=C(Nc1cccc2c1C(C1CCCC(O)C1)NC2=O)c1cc(F)cc(C(F)(F)F)c1 (mixture of isomers) [Compound I-2224] | 10 to 100 |
| N#Cc1cc(-c2ccc(=O)[nH]c2)cc2c1C(c1cc(F)ccc1Cl)NC2=O (stereo not drawn) [Compound I-2089] | 10 to 100 |
| CC([C@H]1C[C@@H](O)CN1C(=O)Nc1cccc2c1C(c1cc(F)ccc1Cl)NC2=O)C(F)(F)F (single isomer, unassigned) [Compound I-2287] | 10 to 100 |
| O=C1NC(c2cc(F)ccc2Cl)c2c(NC(=O)N3CCOCC(F)(F)C3)cc(Br)cc21 (stereo not drawn) [Compound I-698] | 10 to 100 |
| Cc1ccccc1C1NC(=O)c2cccc(NC(=O)c3nc(C)c4ccc(Cl)cn34)c21 (stereo not drawn) [Compound I-285] | 10 to 100 |
| O=C(Nc1cc(Br)cc2c1C(c1cc(F)ccc1Cl)NC2=O)c1cc(F)cc(COC(F)(F)F)c1 (stereo not drawn) [Compound I-1241] | 1 to 10 |
| O=C1N[C@@H](c2cc(F)ccc2Cl)c2c(NC(=O)[C@H]3CCC[C@H](OC(F)(F)F)C3)cccc21 (single isomer, unassigned) [Compound I-2212] | 10 to 100 |
| O=C1NC(c2cc(F)ccc2Cl)c2c(NC(=O)C(O)c3ccccc3)cc(-c3ccc4ncnn4c3)cc21 (stereo not drawn) [Compound I-1724] | 10 to 100 |
| Cn1c(Nc2cccc3c2C(c2cc(F)ccc2Cl)NC3=O)nnc1C1CC1 (stereo not drawn) [Compound I-880] | 10 to 100 |
| CC(C)(C)C(=O)Nc1cc(Br)cc2c1C(c1cc(F)ccc1Cl)NC2=O (stereo not drawn) [Compound I-1139] | 1 to 10 |

Other lines, results leading:

| IC50 [µM] | SMILES |
| --- | --- |
| ≤ 0.1 | NS(=O)(=O)Cc1cc(NC(=O)c2cc(F)cc(C(F)(F)F)c2)c2c(c1)C(=O)N[C@H]2c1cc(F)ccc1Cl [Compound I-1480] |
| 1 to 10 | O=C1NC(c2cc(F)ccc2Cl)c2c(NC(=O)c3nsc(Cl)c3Cl)cc(Br)cc21 (stereo not drawn) [Compound I-1426] |
| 1 to 10 | O=C(Nc1cc(-c2ccc(=O)n(C(F)F)c2)cc2c1[C@@H](c1cc(F)ccc1Cl)NC2=O)c1cc(F)cc(C(F)(F)F)c1 [Compound I-1860] |
| 0.1 to 0.5 | O=C(Nc1cc(NC(=O)c2cc(F)cc(C(F)(F)F)c2)c2c(c1)C(=O)N[C@@H]2c1cc(F)ccc1Cl)c1cccnc1 (racemic) [Compound I-1478] |
| 0.5 to 1 | N#Cc1cnc2ncc(-c3cc(NC(=O)c4cc(F)cc(C(F)(F)F)c4)c4c(c3)C(=O)N[C@@H]4c3cc(F)ccc3Cl)cn12 [Compound I-1858] |
| 0.1 to 0.5 | O=C1NC(C2CCCCC2)c2c(NC(=O)c3nsc4ccccc34)cccc21 (stereo not drawn) [Compound I-204, N-(3-Cyclohexyl-1-oxoisoindolin-4-yl)benzo[d]isothiazole-3-carboxamide] |
| 0.1 to 0.5 | Cn1cc(-c2cc(NC(=O)c3cc(F)cc(Cl)c3)c3c(n2)C(=O)NC3c2cc(F)ccc2Cl)cn1 (stereo not drawn) [Compound I-379] |
| 1 to 10 | O=C(Nc1cnc(N2CC(F)(F)C2)c2c1C(Cl)(c1cc(F)ccc1Cl)NC2=O)c1cc(F)cc(C(F)(F)F)c1 (stereo not drawn) [Compound I-274, N-(1-Chloro-1-(2-chloro-5-fluorophenyl)-4-(3,3-difluoroazetidin-1-yl)-3-oxo-2,3-dihydro-1H-pyrrolo[3,4-c]pyridin-7-yl)-3-fluoro-5-(trifluoromethyl)benzamide] |
| ≤ 0.1 | O=C(Nc1cc(-c2cnc3ncc(Cl)n3c2)cc2c1C(c1cc(F)ccc1Cl)NC2=O)c1cc(F)cc(C(F)(F)F)c1 (stereo not drawn) [Compound I-1934] |
| 0.5 to 1 | Cc1ccccc1C1NC(=O)c2c(C(=O)O)ccc(NC(=O)c3nsc4ccccc34)c21 (stereo not drawn) [Compound I-278] |
